Measured values taken from US5283243A, “Piperidinoalkylbenzoxazine and piperidinoalkylbenzothiazine compounds, and medicaments containing them” (Kali-Chemie Pharma GmbH, priority 1990, dated 1994).

How the values were obtained:
[1] = tested on: 5-lipoxygenase (LTC4 release); assay: 5-Lipoxygenase inhibition: LTC4 release from zymosan-stimulated mouse peritoneal macrophage cells; assay type: cell-based; conditions: Peritoneal macrophage cell; zymosan-stimulated mouse peritoneal macrophage cells, 10^-5 mole/l; read-out: In vitro % inhibition upon release of LTC4
From the text: (§1) 5. In vitro Determination of Cyclooxygenase Inhibition and 5-Lipoxygenase Inhibition
(§2) After a cell is activated, arachidonic acid contained in cell membranes is metabolized in two ways. Leucotrienes, inter alia leucotriene C4, are formed due to the action of the enzyme 5-lipoxyqenase (=5-LO), and prostanoids are formed due to the action of the enzyme cyclooxygenase (=CO). In in vitro systems these metabolites are secreted from the cell.
(§3) To evaluate the cyclooxygenase-inhibiting and 5-lipoxygenase-inhibiting properties of the test substances, their inhibitory activity on the biosynthesis of the arachidonic acid derivatives leucotriene C4 (=LTC4) and 6-keto-prostaglandin F1α (=6-keto-PGF1 α) was determined in vitro on mouse peritoneal macrophage cells. For this purpose the LTC4 and 6-keto-PGF1 α contents of a mouse peritoneal macrophage cell culture medium were determined by zymosan stimulation as described by Scott et al. (J. Exp. Med. 152 (1980), 324-335) and by Fradin et al., (Prostaglandins, 33 (1987), 579-589).
(§4) A cell suspension containing peritoneal cells from male mice 8-10 weeks old was obtained in a known manner. A solution marketed under the designation RPMI 1640 (Manufactured by Gibco) was used as the cell culture medium, to which heparin (10 international units/ml) and antibiotics were added according to the procedure of Bonney et al. (Biochem. J. 176 (1978) 422-433). The cell suspension was adjusted to a cell concentration of 10^6 cells per ml and distributed uniformly on titer dishes containing 24 1-ml titer cells (wells). These were kept for two hours in a humidified incubator filled with air enriched with 7% CO2. Cells not adhering to the titer well walls were then removed by washing. The remaining macrophage cells adhering to the walls were incubated for about 12 hours in a suspension medium to which 0.1% of bovine serum albumin (BSA=Bovine Serum Albumin) was added. The suspension medium was then replaced by a Hanks salt solution (=Hanks Balanced Salt Solution=HBSS) with 10 mmoles of Hepes (=hydroxyethylpiperazinoethanesulfonic acid) to which a 0.1% strength solution of the test substances in aqueous, 1% strength dimethylformamide or only the solvent had been added. After 15 minutes the arachidonic acid metabolism was stimulated by adding […] of zymosan (=glycoprotein mixture isolated from cell walls of beer yeast, Saccharomyces cerevisiae, Manufactured by Sigma Chemical Co., Munich) per titre cell. After 2 hours samples of the respective supernatant liquid in each cell were examined for their 6-keto-PGF1α and LTC4 contents by an enzyme immunoassay (=EIA). This EIA is carried out following the method of Pradelles et al. (Analytical Chem. 57 (1985), 1170-1173). The determination of LTC4 and the determination of 6-keto-PGF1α were each carried out on suitable dilutions of the samples (1:50 to 1:250 for the LTC4 determination and 1:250 to 1:1,250 for the 6-keto-PGF1α determination) in comparison with a comparative scale. To determine the inhibiting effect of a 10^-5 molar concentration of the compounds, the amounts of reference eicosanoid were determined, and the inhibiting effect was calculated therefrom in % inhibition compared to the measurements of the zymosan controls.

[2] = tested on: Histamine-induced anaphylactoid reaction; assay: Inhibition of histamine-induced anaphylactoid cutaneous reaction; assay type: in vivo, Sprague-Dawley rats; conditions: Rattus norvegicus, 1 h; rats, 2 × 10^-5 mole/kg dose per os, one hour before challenge; read-out: % inhibition of Histamine-induced anaphylactoid reaction
Protocol: (§5) 1. Determining Inhibition of Passive Cutaneous Anaphylaxis (PCA) and Histamine-Induced Anaphylactoid Cutaneous Reaction
(§6) The inhibition of the passive cutaneous anaphylaxis and of the anaphylactoid cutaneous reaction induced by histamine was determined as follows:
To determine the histamine-induced anaphylactoid skin reaction, the animals are injected intradermally in the flank opposite to the antiserum administration with 50 μl of a physiological saline solution containing 0.8 mg/ml histamine directly before the intravenous injection of the solution containing the ovalbumin and the blue dye.
(§7) On the day of the experiment the test substances were dissolved in distilled water which contained 1 vol. % dimethylformamide and 1 vol. % of Tween™ 20 (=polyoxyethylene (20) sorbitan monolaurate). One hour before administration of the ovalbumin challenge, each animal was orally administered 2×10^-5 mole/kg of test substance in 0.5 ml of solution. For comparison purposes a control group received only the solvent.
(§8) The edematous anaphylactic (PCA) and anaphylactoid (histamine-induced) reactions caused by the stimulation of the intravenous ovalbumin injection, which manifested themselves by edema formation, swelling and exudation of blue dye, were evaluated 30 minutes after their initiation by the intravenous ovalbumin injection. This was done by visually determining the extent to which the blue dye emerged at the sites of edema formation. The percentage inhibition of anaphylactic and anaphylactoid reactions induced by the test substances in comparison with the reactions of the control animals not treated with any test substance was determined using comparison scales.
(§9) The results obtained using compounds of formula I according to the foregoing test methods are shown in the following Table A. The example numbers given for the compounds of formula I relate to the subsequent preparative examples.

[3] = tested on: Passive cutaneous anaphylaxis (PCA); assay: Inhibition of passive cutaneous anaphylaxis (PCA); assay type: in vivo, Sprague-Dawley rats; conditions: Rattus norvegicus, 1 h; rats, 2 × 10^-5 mole/kg dose per os, one hour before ovalbumin challenge; read-out: % inhibition of Passive cutaneous anaphylaxis (PCA)
Protocol: as §5
The PCA reaction is carried out following the methods described by Goose et al. (J.N. Immunology 16 (1969), 749) and by Martin et al. (Arch. Pharmacol. 316 (1981), 186).
The IgE-rich ovalbumin antiserum used in the test was obtained from immunized Brown-Norway rats. The were immunized with an intraperitoneal injection of a mixture of 100 μg of ovalbumin with a Bordetella pertussis suspension (Vaxicoq™, Manufactured by Institute Merieux, containing 5×10^9 organisms and 1.25 mg Al(OH)3). After 20 days the animals were re-immunized with a further intraperitoneal injection of a solution of 10 μg ovalbumin in 0.5 ml physiological saline solution. After a further four days the blood was removed from the animals and centrifuged. The resulting antiserum was stored at -20° C. until use.
as §6
Sprague-Dawley rats having a body weight of 150-180 g were injected intradermally in one flank with 50 μl of a 1:75 dilution of the IgE-rich ovalbumin antiserum in physiological saline solution to passively sensitize them to ovalbumin.
24 hours after sensitization a solution of 8.25 mg/kg of ovalbumin and 26.4 mg/kg of a blue dye (Evans's Blue) was administered to the rats intravenously according to Martin et al. to trigger passive cutaneous anaphylaxis.
as §7, §8, §9

[4] = tested on: cyclooxygenase (6-keto-PGF1α release); assay: Cyclooxygenase inhibition: 6-keto-PGF1α release from zymosan-stimulated mouse peritoneal macrophage cells; assay type: cell-based; conditions: Peritoneal macrophage cell; zymosan-stimulated mouse peritoneal macrophage cells, 10^-5 mole/l; read-out: In vitro % inhibition upon release of 6-keto-PGF1α
From the text: as §1, §2, §3, §4

mice = assay: Determination of minimum toxic dose; assay type: in vivo; conditions: mouse, in vivo, 300 mg/kg, 1440 min
Protocol: 2. Determination of Minimum Toxic Dose
Maximum doses of 300 mg/kg of the test substance were administered orally to male mice weighing 20-25 g. The animals were observed carefully for 3 hours for toxicity symptoms. In addition, all symptoms and deaths were recorded over a period of 24 hours after administration. Associated symptoms were also observed and recorded. If death or severe toxic symptoms were observed, additional mice were administered increasingly lower doses. The lowest dose which produced death or severe toxic symptoms is given in the following Table B as the minimum toxic dose.

## O=C1Nc2ccccc2SC1CCCN1CCC(Nc2nc3ccccc3n2Cc2ccc(F)cc2)CC1 (centres unmarked) [Example 8]
[1]
  inhibition at 10 µM: 40%
[2]
  inhibition in vivo at 20 µmol/kg: 100%
[3]
  inhibition in vivo at 20 µmol/kg: 100%
[4]
  inhibition at 10 µM: 40%
mice
  Minimum toxic dose: 300 mg/kg
